Laboratory results taken from patent US10213428B2, “(4-((3R,4R)-3-methoxytetrahydro-pyran-4-ylamino)piperidin-1-yl)(5-methyl-6-(((2R,6S)-6-(p-tolyl)tetrahydro-2H-pyran-2-yl)methylamino)pyrimidin-4-yl)methanone citrate” (Centrexion Therapeutics Corporation, priority 2015, dated 2019).
“Also recorded” adds a separate entry of the source.

Assays:
[1] = Solubility, automated shake flask method with UV quantitation; format: physicochemical; conditions: for solubility at 2 h / solubility at 4 h / solubility at 6 h: thermodynamic from solid, room temperature
Protocol: Solubility was determined using an automated shake flask method (at room temperature) and quantitation of the dissolved drug substance was determined by UV-spectroscopy within this automated setup.

[2] = Oral pharmacokinetics in rat; format: in vivo, Wistar(Han) rats; conditions: oral dose 20 μmol/kg of citrate salt 1, mean values
From the text: The pharmacokinetics of the test compound following single intravenous (IV) or oral (PO) doses were examined in • female BALB/c mice (average weight: 25 g) • male Wistar(Han) rats (average weight: 260 g) • male and female Göttingen Minipigs (average weight: 24 kg) • male beagle dogs (average weight: 15 kg) All non-rodent species were fasted overnight prior to dosing, while mice and rats had food and water available ad libitum. The p.o. dose of the compound was usually administered as suspension in 0.5% Natrosol or as a 0.5% Natrosol/0.015% Tween 80 suspension. For i.v. dosing purposes, the doses were applied as a solution in 0.9% NaCL, or as a solution containing 9.1% HP-beta Cyclodextrin in water.
Blood was collected by venous sampling and soaking of the blood in EDTA coated tubes. Samples were collected for up to 48 h after administration of the test compound. Plasma was then separated by centrifugation (5 min by approximately 9000 g at 4° C.). For determination of the test compound, plasma was transferred into PCR plates. All samples were stored at approximately −20° C. until bioanalytics. The test compound concentrations in plasma were determined by HPLC MS/MS. The lower limit of quantification was between 0.5 nmol/L and 1 nmol/L.

[3] = Dynamic vapour sorption (sorption isotherms, water uptake); format: physicochemical; conditions: for hygroscopic behavior: uptake of water: 25° C., citrate
From the text: Sorption isotherms were generated using an IGAsorp water sorption monitor from Hiden Isochema. […] For BR salt form only: Sorption isotherms were registered on a DVS-1 water sorption monitor from Surface Measurement Systems.

[4] = X-ray powder diffraction: crystallinity and polymorphism; format: physicochemical; conditions: for indications for polymorphism: several crystallization experiments
From the text: X-ray powder diagrams were generated using a STOE-STADI P-diffractometer in transmission mode fitted with a MYTHEN-detector and a Cu-anode as X-ray source with monochromatic CuKα1 radiation (λ=1.54056 Å, 40 kV, 40 mA).

[5] = ThermoGravimetry (loss on drying); format: physicochemical; conditions: TG
From the text: Thermal gravimetry data were collected with a TG instrument from the Q-series of TA Instruments. This method measures weight changes in a material as a function of temperature under a controlled atmosphere.

[6] = male, Wistar(Han), plasma, 20 umol/kg
[7] = listed as Citrate salt, citrate

## CO[C@H]1COCC[C@H]1NC1CCN(C(=O)c2ncnc(NC[C@H]3CCC[C@@H](c4ccc(C)cc4)O3)c2C)CC1.O=C(O)CC(O)(CC(=O)O)C(=O)O [citrate salt 1, (4-((3R,4R)-3-methoxytetrahydro-pyran-4-ylamino)piperidin-1-yl)(5-methyl-6-(((2R,6S)-6-(p-tolyl)tetrahydro-2H-pyran-2-yl)methylamino)pyrimidin-4-yl)methanone citrate]
[1]; Sörensen buffer, aqueous buffer, Sörensen pH 10, 2 h
  solubility at 2 h: > 1000 µg/mL
[1]; Sörensen buffer, aqueous buffer, Sörensen pH 10, 4 h
  solubility at 4 h: > 1000 µg/mL
[1]; Sörensen buffer, aqueous buffer, Sörensen pH 10, 6 h
  solubility at 6 h: > 1000 µg/mL
[1]; acidic, neutral and basic aqueous media
  Solubility in aqueous media (in words): highly soluble
[1]; aqueous buffer, 0.1N NaOH, 2 h
  solubility at 2 h: > 1000 µg/mL
[1]; aqueous buffer, 0.1N NaOH, 4 h
  solubility at 4 h: > 1000 µg/mL
[1]; aqueous buffer, 0.1N NaOH, 6 h
  solubility at 6 h: > 1000 µg/mL
[1]; aqueous buffer, KH2PO4-buffer pH 7.4, 2 h
  solubility at 2 h: > 1000 µg/mL
[1]; aqueous buffer, KH2PO4-buffer pH 7.4, 4 h
  solubility at 4 h: > 1000 µg/mL
[1]; aqueous buffer, KH2PO4-buffer pH 7.4, 6 h
  solubility at 6 h: > 1000 µg/mL
[1]; aqueous buffer, McIlvaine buffer pH 2.2, 2 h
  solubility at 2 h: > 1000 µg/mL
[1]; aqueous buffer, McIlvaine buffer pH 2.2, 4 h
  solubility at 4 h: > 1000 µg/mL
[1]; aqueous buffer, McIlvaine buffer pH 2.2, 6 h
  solubility at 6 h: > 1000 µg/mL
[1]; aqueous buffer, McIlvaine buffer pH 3.0, 2 h
  solubility at 2 h: > 1000 µg/mL
[1]; aqueous buffer, McIlvaine buffer pH 3.0, 4 h
  solubility at 4 h: > 1000 µg/mL
[1]; aqueous buffer, McIlvaine buffer pH 3.0, 6 h
  solubility at 6 h: > 1000 µg/mL
[1]; aqueous buffer, McIlvaine buffer pH 4.0, 2 h
  solubility at 2 h: > 1000 µg/mL
[1]; aqueous buffer, McIlvaine buffer pH 4.0, 4 h
  solubility at 4 h: > 1000 µg/mL
[1]; aqueous buffer, McIlvaine buffer pH 4.0, 6 h
  solubility at 6 h: > 1000 µg/mL
[1]; aqueous buffer, McIlvaine buffer pH 4.5, 4 h
  solubility at 4 h: > 1000 µg/mL
[1]; aqueous buffer, McIlvaine buffer pH 4.5, 6 h
  solubility at 6 h: > 1000 µg/mL
[1]; aqueous buffer, McIlvaine buffer pH 5.0, 2 h
  solubility at 2 h: > 1000 µg/mL
[1]; aqueous buffer, McIlvaine buffer pH 5.0, 4 h
  solubility at 4 h: > 1000 µg/mL
[1]; aqueous buffer, McIlvaine buffer pH 5.0, 6 h
  solubility at 6 h: > 1000 µg/mL
[1]; aqueous buffer, McIlvaine buffer pH 6.0, 2 h
  solubility at 2 h: > 1000 µg/mL
[1]; aqueous buffer, McIlvaine buffer pH 6.0, 4 h
  solubility at 4 h: > 1000 µg/mL
[1]; aqueous buffer, McIlvaine buffer pH 6.0, 6 h
  solubility at 6 h: > 1000 µg/mL
[1]; aqueous buffer, McIlvaine buffer pH 6.8, 2 h
  solubility at 2 h: > 1000 µg/mL
[1]; aqueous buffer, McIlvaine buffer pH 6.8, 4 h
  solubility at 4 h: > 1000 µg/mL
[1]; aqueous buffer, McIlvaine buffer pH 6.8, 6 h
  solubility at 6 h: > 1000 µg/mL
[1]; aqueous buffer, McIlvaine buffer pH 7.4, 2 h
  solubility at 2 h: > 1000 µg/mL
[1]; aqueous buffer, McIlvaine buffer pH 7.4, 4 h
  solubility at 4 h: > 1000 µg/mL
[1]; aqueous buffer, McIlvaine buffer pH 7.4, 6 h
  solubility at 6 h: > 1000 µg/mL
[1]; organic solvent or mixture, EtOH, 2 h
  solubility at 2 h: 9200 µg/mL
[1]; organic solvent or mixture, EtOH, 4 h
  solubility at 4 h: 9800 µg/mL
[1]; organic solvent or mixture, EtOH, 6 h
  solubility at 6 h: 10000 µg/mL
[1]; simulated gastric fluid, 0.01N HCl, 2 h
  solubility at 2 h: > 1000 µg/mL
[1]; simulated gastric fluid, 0.01N HCl, 4 h
  solubility at 4 h: > 1000 µg/mL
[1]; simulated gastric fluid, 0.01N HCl, 6 h
  solubility at 6 h: > 1000 µg/mL
[1]; simulated gastric fluid, 0.1N HCl, 2 h
  solubility at 2 h: > 1000 µg/mL
[1]; simulated gastric fluid, 0.1N HCl, 4 h
  solubility at 4 h: > 1000 µg/mL
[1]; simulated gastric fluid, 0.1N HCl, 6 h
  solubility at 6 h: > 1000 µg/mL
[1]; Water, 2 h
  solubility at 2 h: > 1000 µg/mL
[1]; Water, 4 h
  solubility at 4 h: > 1000 µg/mL
[1]; Water, 6 h
  solubility at 6 h: > 1000 µg/mL
[2]; [6]
  AUC(0-inf): 1.71 µM·h
  Cmax: 454 nM
  Tmax: 1.08 h
[2]
  MRTtot: 3.3 h
[3]; higher relative humidity, other salts starting at 60-70% relative humidity
  physical state after sorption experiment / at higher relative humidity: still remains as solid material
[3]; up to 80% r.h. (humidity range 10-80%)
  hygroscopic behavior: uptake of water: 2.6%
[3]; up to 80% r.h. (humidity range 10-80%), listed as Citrate salt
  hygroscopic behavior: uptake of water: 2.6%
[3]; up to 80% r.h. (humidity range 10-80%), listed as citrate
  hygroscopic behavior: uptake of water: 2.6%
[3]; up to 90% r.h.
  hygroscopic behavior: uptake of water: 3.4%
[3]; up to 90% r.h., listed as Citrate salt
  hygroscopic behavior: uptake of water: 3.4%
[4]; listed as Citrate salt 1, citrate
  crystallinity: highly crystalline
[4]; [7]
  crystallinity: high
  indications for polymorphism: no
[4]; listed as citrate, citrate
  indications for polymorphism: Only one crystalline form; also recorded: only one polymorphic form
[5]
  loss on drying: 1.6%
